Legend:
S. aureus = assay: MIC and MBC of topical gel vs. Mupirocin; format: cell-based, Staphylococcus aureus; conditions: 0-10% w/v, overnight at 37° C., aliquots plated, lack of any growth
Experimental: MIC was determined by visually observing where turbid growth stopped, MBC was determined by taking aliquots from each tube, plating onto media, and observation for lack of any growth.
Mupirocin is the standard ointment for treatment of S. aureus topical infections. […] MIC was determined by visually observing where turbid growth stopped, MBC was determined by taking aliquots from each tube, plating onto media, and observation for lack of any growth.

SprX = format: cell-based, S. aureus; conditions: 1% (w/v), one hour, RNA level by RT-PCR
From the text: (§1) FIG. 10 is a graph showing the effect of the topical gel on S. aureus gene expression compared to mupirocin treatment. Results are expressed as percent change in intensity values.
(§2) FIG. 11 is a graph showing the effect of the topical gel on S. aureus gene expression compared to control and mupirocin treatment. Results are expressed as gene expression intensity ratios.
(§3) In an effort to elucidate the mechanism of action of the topical gel on S. aureus as well as to examine any commonalities or differences in Staphylococcal response to treatment, transcriptional response was evaluated. S. aureus was either 1) grown alone as a control, 2) grown in 1% (w/v) topical gel, or 3) grown in 1% (w/v) Mupirocin for one hour. Cells were harvested and total RNA was extracted. Reverse Transcriptase polymerase chain reaction using gene specific primers was utilized to determine the RNA levels for the specific genes RecA, SprX, and PsrA. RecA is a protein specific for SOS response in Staphylococcus indicative of a need to repair DNA damage. SprX is a small RNA associated with Staphylococcus antibiotic resistance. PsrA regulates expression of proteins in the cell wall of Staphylococcus which are both essential for bacterial survival and antibiotic resistance.

PsrA = assay: S. aureus gene expression by RT-PCR; format: cell-based; conditions: 1% (w/v), one hour, RNA level by RT-PCR
From the text: as §1, §2, §3

C/C(=C\C(=O)OCCCCCCCCC(=O)O)C[C@@H]1OC[C@H](C[C@@H]2O[C@H]2[C@@H](C)[C@H](C)O)[C@@H](O)[C@H]1O [Mupirocin]
MBC values compared to topical gel (S. aureus): lower MBC values | reduction of expression of SprX (SprX): 78% | reduction of expression of PsrA (PsrA): 56%

Source: patent US10912759B2 (priority 2018, dated 2021)
